In US20240373846A1, “Herbicidal Compositions” (SYNGENTA CROP PROTECTION AG, priority 2021, published 2024):

Legend:
Test in all cases: Post-emergence efficacy
Format in all cases: in vivo
[1] = system: Digitaria insularis (TRCIN); conditions: 100=total damage to plant, 0=no damage
Excerpt: (§1) When active ingredients are combined, the activity to be expected (E) for any given active ingredient combination obeys the so-called Colby Formula and can be calculated as follows (Colby, S. R., Calculating synergistic and antagonistic responses of herbicide combination, Weeds, Vol. 15, pages 20-22; 1967): • ppm=milligrams of active ingredient (a.i.) per litre • X=% action by first active ingredient using p ppm of the active ingredient • Y=% action by second active ingredient sing q ppm of the active ingredient.
(§2) According to Colby, the expected action of active ingredients A+B using p+q ppm of active ingredient is represented by the following formula: […]
(§3) If the action actually observed (O) is greater than the expected action E then the action of the combination is super-additive, i.e. there is a synergistic effect. In mathematical terms, synergism corresponds to a positive value for the difference of (O−E). In the case of purely complementary addition of activities (expected activity), said difference (O−E) is zero. A negative value of said difference (O−E) signals a loss of activity compared to the expected activity.
(§4) The efficacy of various compositions of the present invention were tested against plants including the following species: Amaranthus retroflexus (AMARE), Echinochloa crus-gali (ECHCG), Lolium multiflorum (LOLMU), Setaria faberi (SETFA), and Digitaria insularis (TRCIN). The compositions are applied post-emergence, and the tests evaluated at certain days-after-application (DAA) as indicated. The tests were evaluated (100=total damage to plant; 0=no damage to plant), and the results are shown below in tables B1 to B11 below.

[2] = system: Amaranthus retroflexus (AMARE); conditions: 100=total damage to plant, 0=no damage
Excerpt: as §1, §2, §3, §4

[3] = system: Echinochloa crus-gali (ECHCG); conditions: 100=total damage to plant, 0=no damage
Excerpt: as §1, §2, §3, §4

Setaria faberi (SETFA) = conditions: Table B8, 13 DAA, 100=total damage to plant, 0=no damage
Excerpt: as §1, §2, §3, §4

[4] = system: Lolium multiflorum (LOLMU); conditions: Table B11, 15DAA, 100=total damage to plant, 0=no damage
Excerpt: as §1, §2, §3, §4

## COc1ccc(-n2c(=O)c(C(=O)C3C(=O)CCCC3=O)nc3c(Cl)cccc32)cc1 [Formula B1d, fenquinotrione]
[1]; Table B2, 16DAA, 500 g/ha
  Observed: 35
[1]; Table B2, 16DAA, 1000 g/ha
  Observed: 43

## CS(=O)(=O)c1ccc(C(=O)C2C(=O)CCCC2=O)c([N+](=O)[O-])c1 [Formula B1f, mesotrione]
[2]; Table B3, 13 DAA, 3.75 g/ha
  Observed: 18

## CCOCN(C(=O)CCl)c1c(C)cccc1CC [Formula B2a, acetochlor]
[3]; Table B4, 15DAA, 4000 g/ha
  Observed: 50

## Cn1nc(C(F)(F)F)c(CS(=O)(=O)C2=NOC(C)(C)C2)c1OC(F)F [Formula B2d, pyroxasulfone]
[3]; Table B5, 15DAA, 125 g/ha
  Observed: 38
[3]; Table B5, 15DAA, 250 g/ha
  Observed: 35

## CCOC(=O)c1ccccc1S(=O)(=O)NC(=O)Nc1nc(Cl)cc(OC)n1 [Formula B3c, chlorimuron-ethyl]
[2]; Table B6, 13DAA, 1.88 g/ha
  Observed: 88
[2]; Table B6, 13DAA, 7.5 g/ha
  Observed: 83

## CCc1cnc(C2=NC(C)(C(C)C)C(=O)N2)c(C(=O)O)c1 (stereo not shown) [Formula B3j, imazethapyr]
[1]; Table B7, 16DAA, 8 g/ha
  Observed: 30
[1]; Table B7, 16DAA, 15 g/ha
  Observed: 53

## COc1cc(OC)nc(NC(=O)NS(=O)(=O)c2ncccc2C(=O)N(C)C)n1 [Formula B3m, nicosulfuron]
Setaria faberi (SETFA); 0.94 g/ha
  Observed: 0
Setaria faberi (SETFA); 1.88 g/ha
  Observed: 0
Setaria faberi (SETFA); 3.75 g/ha
  Observed: 0

## CCNc1nc(Cl)nc(NC(C)C)n1 [Formula B4c, atrazine]
[3]; Table B9, 20DAA, 500 g/ha
  Observed: 60

## CSc1nnc(C(C)(C)C)c(=O)n1N [Formula B4g, metribuzin]
[2]; Table B10, 13 DAA, 7.5 g/ha
  Observed: 0

## FC(F)c1cc(-c2c(Cl)cccc2Oc2ncc(Cl)cn2)on1 [Formula B5d, rimisoxafen]
[4]; 30 g/ha
  Observed: 18

## CC#Cc1ccc(C2=C(OC(=O)OC)C3CCC(C3)C2=O)c(OC)c1 (stereo not shown) [Formula Ic]
[4]; 12.5 g/ha
  Observed: 60
[1]; Table B7, 16DAA, 3.125 g/ha
  Observed: 15
Setaria faberi (SETFA); 0.47 g/ha
  Observed: 3
Setaria faberi (SETFA); 0.94 g/ha
  Observed: 0
Setaria faberi (SETFA); 1.88 g/ha
  Observed: 0
[2]; Table B1, 13 DAA, 0.47 g/ha
  Observed: 0
[2]; Table B1, 13 DAA, 0.94 g/ha
  Observed: 0
[2]; Table B3, 13 DAA, 0.47 g/ha
  Observed: 10
[2]; Table B3, 13 DAA, 0.94 g/ha
  Observed: 0
[2]; Table B6, 13DAA, 1.88 g/ha
  Observed: 7.5
[2]; Table B10, 13 DAA, 0.47 g/ha
  Observed: 10
[2]; Table B10, 13 DAA, 0.94 g/ha
  Observed: 0
[2]; Table B10, 13 DAA, 1.88 g/ha
  Observed: 0

## bicyclopyrone [Formula B1b]
[2]; Table B1, 13 DAA, 0.94 g/ha
  Observed: 23
[2]; Table B1, 13 DAA, 1.88 g/ha
  Observed: 45
